Results on twelve compounds are retold here after patent US9309242B2, “Substituted pyrido[2,3-b]pyrazines as FGFR kinase inhibitors” (priority 2011, dated 2016).

A word on the melting point: it is the temperature, or range, at which the solid turns liquid.

Structures are written as SMILES. Where only a bound is given, the exact number is not on record here.

The target in data set [1] is KDR (h) (Homo sapiens, UniProt P35968). The data set can be described thus: KDR (VEGFR2) (enzymatic assay), TR-FRET. The format is biochemical. Conditions: read-out: VEGFR 2 (KDR) pIC50 (converted). Put shortly:
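Human KDR (150 ng/ml) was reacted with 500 nM Btn-Flt3 and 3 μM ATP in 50 mM HEPES pH 7.5, 6 mM MnCl2, 1 mM DTT, 0.1 mM Na3VO4, 0.01% Triton X-100, 1% DMSO, for 120 min at room temperature. Phosphorylation detected by TR-FRET (Eu-anti-P-Tyr/SA-XL665, 60 min), read in RFU.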
Background: In TR-FRET formats the signal depends on donor and acceptor labels being close together.

Data set [2] concerns the target FGFR3 (h) (Homo sapiens, UniProt P22607). Briefly: FGFR3 (enzymatic assay), TR-FRET. Type of data set: biochemical. Particulars: read-out: FGFR 3 pIC50 (converted). The text has this: Time-Resolved Fluorescence Resonance Energy Transfer (TR-FRET) signal (ex340 nm.
In data set [3] the target is T1, Ba/F3-FGFR3-transfected cells (Homo sapiens, UniProt P22607).
T1 construct: BAF3-FGFR3 (MIN IL3) pIC50; other: minus IL3
Briefly: Ba/F3-FGFR3 (minus IL3) cellular proliferation assay, Alamar Blue. Type of data set: cell-based. Put shortly:
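Ba/F3 cells transfected with FGFR3 were seeded at 20000 cells/well in phenol red-free RPMI-1640 with 10% FBS over compound in DMSO and kept 24 hours at 37° C, 5% CO2. Alamar Blue (resazurin) was then added for 4 hours and fluorescence read at ex 540/em 590 nm. The counterscreen repeated this with 10 ng/ml murine IL3.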
Background: The colour change of resazurin is a common sign of viable cells or microbes.

Sequence of KDR (h) (P35968 20-1356): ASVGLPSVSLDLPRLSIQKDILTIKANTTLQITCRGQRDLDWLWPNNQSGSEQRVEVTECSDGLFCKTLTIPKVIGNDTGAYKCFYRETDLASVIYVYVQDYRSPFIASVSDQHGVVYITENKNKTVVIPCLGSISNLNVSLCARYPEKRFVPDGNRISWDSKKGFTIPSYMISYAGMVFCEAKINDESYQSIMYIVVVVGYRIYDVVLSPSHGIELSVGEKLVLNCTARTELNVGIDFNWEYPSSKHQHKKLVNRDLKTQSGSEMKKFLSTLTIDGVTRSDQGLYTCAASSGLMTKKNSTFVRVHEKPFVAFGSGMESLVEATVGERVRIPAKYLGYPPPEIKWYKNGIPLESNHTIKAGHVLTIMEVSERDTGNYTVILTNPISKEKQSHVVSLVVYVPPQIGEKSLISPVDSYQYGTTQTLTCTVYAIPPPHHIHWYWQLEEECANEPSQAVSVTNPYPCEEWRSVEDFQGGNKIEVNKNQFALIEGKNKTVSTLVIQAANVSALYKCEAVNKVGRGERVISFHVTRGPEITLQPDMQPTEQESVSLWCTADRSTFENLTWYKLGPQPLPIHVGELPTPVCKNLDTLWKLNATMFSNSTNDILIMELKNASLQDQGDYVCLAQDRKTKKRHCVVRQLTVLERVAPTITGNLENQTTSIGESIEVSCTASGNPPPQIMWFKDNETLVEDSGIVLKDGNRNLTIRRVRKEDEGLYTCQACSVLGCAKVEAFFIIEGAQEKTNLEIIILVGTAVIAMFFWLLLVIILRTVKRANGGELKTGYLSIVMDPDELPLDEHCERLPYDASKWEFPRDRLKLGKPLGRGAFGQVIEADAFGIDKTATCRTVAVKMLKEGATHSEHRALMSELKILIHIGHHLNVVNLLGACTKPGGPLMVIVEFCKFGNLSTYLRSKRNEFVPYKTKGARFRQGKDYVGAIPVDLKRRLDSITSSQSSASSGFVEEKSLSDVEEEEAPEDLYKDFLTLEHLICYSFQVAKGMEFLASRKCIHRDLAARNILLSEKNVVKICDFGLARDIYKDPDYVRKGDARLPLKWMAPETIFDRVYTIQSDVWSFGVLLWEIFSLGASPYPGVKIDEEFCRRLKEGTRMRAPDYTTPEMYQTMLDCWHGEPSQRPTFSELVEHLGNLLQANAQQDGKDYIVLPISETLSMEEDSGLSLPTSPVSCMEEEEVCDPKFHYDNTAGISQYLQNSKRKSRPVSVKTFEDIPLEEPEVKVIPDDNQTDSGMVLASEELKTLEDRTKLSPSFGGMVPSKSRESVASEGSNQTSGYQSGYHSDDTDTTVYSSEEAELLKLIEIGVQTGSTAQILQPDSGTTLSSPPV
T1 sequence (P22607 whole entry, change not shown): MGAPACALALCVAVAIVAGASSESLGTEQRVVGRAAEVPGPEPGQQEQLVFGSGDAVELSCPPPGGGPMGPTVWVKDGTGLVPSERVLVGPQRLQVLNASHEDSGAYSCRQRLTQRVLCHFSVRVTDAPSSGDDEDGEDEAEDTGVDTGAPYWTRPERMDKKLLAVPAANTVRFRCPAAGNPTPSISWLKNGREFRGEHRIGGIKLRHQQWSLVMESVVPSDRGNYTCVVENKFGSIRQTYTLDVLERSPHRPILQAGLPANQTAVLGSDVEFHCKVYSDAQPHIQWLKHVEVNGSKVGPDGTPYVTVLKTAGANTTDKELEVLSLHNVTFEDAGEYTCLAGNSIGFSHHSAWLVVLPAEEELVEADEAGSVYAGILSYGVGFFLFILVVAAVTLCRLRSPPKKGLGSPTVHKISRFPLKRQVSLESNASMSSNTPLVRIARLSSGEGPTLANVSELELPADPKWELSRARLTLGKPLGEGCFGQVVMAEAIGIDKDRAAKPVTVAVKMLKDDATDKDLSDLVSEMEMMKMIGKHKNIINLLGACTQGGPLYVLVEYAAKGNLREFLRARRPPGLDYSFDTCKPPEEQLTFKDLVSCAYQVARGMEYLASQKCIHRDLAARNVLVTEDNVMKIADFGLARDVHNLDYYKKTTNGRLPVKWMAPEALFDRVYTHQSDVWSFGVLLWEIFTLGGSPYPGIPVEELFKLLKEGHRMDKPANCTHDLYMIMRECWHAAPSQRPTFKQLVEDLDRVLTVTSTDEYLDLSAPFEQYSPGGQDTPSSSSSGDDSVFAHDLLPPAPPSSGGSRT
Sequence of FGFR3 (h) (P22607 23-806): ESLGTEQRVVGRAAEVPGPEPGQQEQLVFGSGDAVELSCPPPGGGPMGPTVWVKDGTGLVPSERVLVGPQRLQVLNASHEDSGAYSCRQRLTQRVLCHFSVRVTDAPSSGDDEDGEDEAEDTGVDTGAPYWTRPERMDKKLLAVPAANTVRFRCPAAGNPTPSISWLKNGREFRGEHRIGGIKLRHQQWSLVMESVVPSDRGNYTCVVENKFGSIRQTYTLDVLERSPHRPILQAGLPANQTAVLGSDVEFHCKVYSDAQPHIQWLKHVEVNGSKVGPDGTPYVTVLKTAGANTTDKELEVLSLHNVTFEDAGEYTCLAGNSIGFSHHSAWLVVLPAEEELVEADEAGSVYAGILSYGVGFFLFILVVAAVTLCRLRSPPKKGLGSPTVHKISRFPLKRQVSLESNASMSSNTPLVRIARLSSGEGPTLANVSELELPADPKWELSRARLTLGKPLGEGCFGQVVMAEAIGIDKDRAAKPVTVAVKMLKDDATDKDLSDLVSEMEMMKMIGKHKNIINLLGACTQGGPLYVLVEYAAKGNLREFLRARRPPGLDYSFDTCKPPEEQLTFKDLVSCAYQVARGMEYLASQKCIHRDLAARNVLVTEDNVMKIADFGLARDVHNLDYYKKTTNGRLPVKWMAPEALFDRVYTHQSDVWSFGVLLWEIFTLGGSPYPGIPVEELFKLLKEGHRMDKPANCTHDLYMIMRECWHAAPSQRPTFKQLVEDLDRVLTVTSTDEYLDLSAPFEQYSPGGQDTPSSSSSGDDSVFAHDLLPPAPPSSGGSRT

`COc1cc(OC)c(F)c(N(CCO)c2ccc3ncc(-c4cnn(CCO)c4)nc3n2)c1` [Compound 233]: the melting point was 194 °C. Moreover, the IC50 in data set [1] is 25.7 nM. Further, the IC50 in data set [2] was 0.776 nM. Moreover, the “BAF3-FGFR3 (MIN IL3) pIC50” value in data set [3] is recorded as 7.40.

Compound `COc1cc(OC)cc(N(Cc2n[nH]c(=O)o2)c2ccc3ncc(-c4cnn(C)c4)nc3n2)c1` [Compound 229] registered a melting point of 232 °C. The IC50 in data set [1] was 182 nM. The IC50 in data set [2] is 4.07 nM. Also, the “BAF3-FGFR3 (MIN IL3) pIC50” value in data set [3] came to 6.05.

As for `COc1cc(OC)c(F)c(/N=c2\ccc3ncc(-c4cnn(C)c4)nc3n2CCN(C2COC2)C2COC2)c1F` [Compound 164], the melting point was 218 °C. In addition, the IC50 in data set [1] is 3.39 nM. For the same compound, in data set [2], the IC50 is 0.933 nM. Besides, the “BAF3-FGFR3 (MIN IL3) pIC50” value in data set [3] amounted to 7.89.

`COc1cc(OC)cc(N(Cc2nnc(N)o2)c2ccc3ncc(-c4cnn(C)c4)nc3n2)c1` [Compound 188] displayed a melting point of 246 °C. The IC50 in data set [1] was 33.9 nM. In data set [2], the IC50 was 0.933 nM. In addition, in data set [3], the “BAF3-FGFR3 (MIN IL3) pIC50” value is recorded as approximately 7.15.

On to `COc1cc(/N=c2\ccc3ncc(-c4cnn(CC(C)(C)O)c4)nc3n2CC(C)(C)O)c(F)c(OC)c1` (single isomer, unassigned) [Compound 207], for which the melting point was determined as 154 °C. Moreover, the IC50 in data set [1] is 8.32 nM. The IC50 in data set [2] is 1.17 nM. Further, the “BAF3-FGFR3 (MIN IL3) pIC50” value in data set [3] is recorded as approximately 7.57.

Regarding `COc1cc(OC)c(F)c(N(CC#N)c2ccc3ncc(-c4cnn(C)c4)nc3n2)c1F` [Compound 173], the melting point worked out at 250 °C. Further, the IC50 in data set [1] was 8.91 nM. Also, the IC50 in data set [2] was 0.437 nM. In data set [3], the “BAF3-FGFR3 (MIN IL3) pIC50” value is approximately 8.04.

In turn, `COc1cc(OC)cc(N(Cc2nnco2)c2ccc3ncc(-c4cnn(C)c4)nc3n2)c1` [Compound 217] returned a melting point of 240 °C. The IC50 in data set [1] was 162 nM. In addition, the IC50 in data set [2] was 3.89 nM. Also, in data set [3], the “BAF3-FGFR3 (MIN IL3) pIC50” value was approximately 6.68.

`COc1cc(OC)c(F)c(/N=c2\ccc3ncc(-c4cnn(C)c4)nc3n2CC2CCOC2)c1F` (stereo not drawn) [Compound 154] had a melting point of 226 °C. Also, the IC50 in data set [1] is 1.62 nM. Also, the IC50 in data set [2] was 0.676 nM. In data set [3], the “BAF3-FGFR3 (MIN IL3) pIC50” value is given as 7.59.

Consider `COc1cc(OC)c(F)c(N(CCNC2COC2)c2ccc3ncc(-c4cnn(C)c4)nc3n2)c1F` (single isomer, unassigned) [Compound 162], for which the melting point turned out to be 183 °C. Moreover, in data set [1], the IC50 is 8.91 nM. Besides, in data set [2], the IC50 was 1.41 nM. Moreover, the “BAF3-FGFR3 (MIN IL3) pIC50” value in data set [3] is given as 7.95.

Compound `COc1cc(OC)c(F)c(N(CC(=O)NCCO)c2ccc3ncc(-c4cnn(C)c4)nc3n2)c1` [Compound 230] registered a melting point of 258 °C. Further, the IC50 in data set [1] is 363 nM. The IC50 in data set [2] was 7.94 nM. Besides, the “BAF3-FGFR3 (MIN IL3) pIC50” value in data set [3] is on record as 6.18.

As for `COc1cc(/N=c2\ccc3ncc(-c4cnn(C)c4)nc3n2CC2CCOC2)c(F)c(OC)c1` (single isomer, unassigned) [Compound 169], the melting point is 80 °C. Further, the IC50 in data set [1] was 4.27 nM. For the same compound, the IC50 in data set [2] is 1.02 nM. The “BAF3-FGFR3 (MIN IL3) pIC50” value in data set [3] is given as 7.44.

`COc1cc(OC)c(F)c(N(CC(=O)O)c2ccc3ncc(-c4cnn(C)c4)nc3n2)c1` [Compound 231] gave a melting point of more than 260 °C. In data set [1], the IC50 is 200 nM. For the same compound, the IC50 in data set [2] was 3.98 nM. In addition, the “BAF3-FGFR3 (MIN IL3) pIC50” value in data set [3] came out at 5.75.
